Test results reported in article PMC9405973, “Altered Conformational Landscape upon Sensing Guanine Nucleotides in a Disease Mutant of Elongation Factor-like 1 (EFL1) GTPase” (Biomolecules, 2022).
“And” between values parts separate entries of the source, which are not always exact repeats. Equal entries are not always repeated.

What was measured:
Efl1 R1086Q = target: T1, Efl1 R1086Q (Saccharomyces cerevisiae, UniProt P53893, R1086Q); test: Isothermal titration calorimetry (ITC): binding of guanine nucleotides or Sdo1 to Efl1 R1086Q; conditions: for Kd / -TΔSb / ΔGb / ΔHb / ΔCpb: guanine nucleotide; for ΔCpb: from ΔHb at 25–35 °C
T1 construct: made in house; host or cells: Saccharomyces cerevisiae
T1 sequence (P53893 whole entry R1086Q): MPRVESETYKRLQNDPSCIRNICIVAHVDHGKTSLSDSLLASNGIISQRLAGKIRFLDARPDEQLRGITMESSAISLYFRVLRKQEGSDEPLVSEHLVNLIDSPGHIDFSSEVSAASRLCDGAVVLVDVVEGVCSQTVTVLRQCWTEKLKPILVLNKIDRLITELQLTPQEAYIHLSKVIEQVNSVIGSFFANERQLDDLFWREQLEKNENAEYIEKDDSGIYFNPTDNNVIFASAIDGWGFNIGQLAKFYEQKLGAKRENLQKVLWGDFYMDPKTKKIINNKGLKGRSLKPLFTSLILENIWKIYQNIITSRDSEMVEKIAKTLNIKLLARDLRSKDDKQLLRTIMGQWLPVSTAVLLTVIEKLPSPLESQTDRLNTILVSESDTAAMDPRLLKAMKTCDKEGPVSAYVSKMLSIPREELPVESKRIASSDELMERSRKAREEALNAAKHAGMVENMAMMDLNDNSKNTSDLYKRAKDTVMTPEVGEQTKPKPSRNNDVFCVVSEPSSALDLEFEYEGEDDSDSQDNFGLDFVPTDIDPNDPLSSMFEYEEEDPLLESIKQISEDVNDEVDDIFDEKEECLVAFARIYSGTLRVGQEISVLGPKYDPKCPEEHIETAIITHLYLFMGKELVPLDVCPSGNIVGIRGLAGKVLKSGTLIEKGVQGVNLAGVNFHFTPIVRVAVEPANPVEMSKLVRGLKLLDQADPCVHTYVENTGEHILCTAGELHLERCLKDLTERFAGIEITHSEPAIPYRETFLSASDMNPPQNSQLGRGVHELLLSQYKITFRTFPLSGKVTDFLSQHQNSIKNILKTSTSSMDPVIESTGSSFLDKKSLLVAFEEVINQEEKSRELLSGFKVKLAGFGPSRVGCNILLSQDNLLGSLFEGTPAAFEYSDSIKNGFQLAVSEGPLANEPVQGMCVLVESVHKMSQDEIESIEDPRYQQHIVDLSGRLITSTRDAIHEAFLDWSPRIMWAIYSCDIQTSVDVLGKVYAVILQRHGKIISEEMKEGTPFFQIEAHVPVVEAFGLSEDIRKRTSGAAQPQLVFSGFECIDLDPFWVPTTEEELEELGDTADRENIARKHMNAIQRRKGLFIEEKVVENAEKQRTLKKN
Method: All calorimetric measurements were carried out using MicroCal^TM iTC200 System (GE Healthcare, Northampton, MA, USA) in a temperature range of 25–35 °C. Experiments were performed in a buffer consisting of 50 mM Tris-HCl (pH 8.0), 150 mM NaCl, 100 µM DTT, and 5% glycerol. In the titrations with Mg^2+-bound nucleotides, both the ligand and protein solutions contained 5 mM MgCl2. In the case of titrations with Mg^2+-free nucleotide, both the ligand and protein solutions were supplemented with 2 mM EDTA to sequester any residual trace of metal ions in solution. Protein samples and ligands were prepared in the exact same buffer prior to each titration. Protein concentration in the cell comprised 30–50 µM GTPase, while the ligand concentration in the syringe was 2–3 mM for GTP, MgGTP, GDP, and MgGDP. To ensure measuring the interaction of the complex Efl1 R1086Q•Sdo1 with the nucleotide, an eight-fold concentration excess of Sdo1 was used compared with that of the enzyme. […] The titration schedule consisted of 15–20 consecutive injections of the ligand with 5 min intervals between injections and a stirring rate of 700 rpm. The dilution heat of the ligand was obtained by adding the ligand to a buffer solution under identical conditions and with the same injection schedule used for the protein sample. All samples were degassed for 10 min prior to the experiment.
The binding isotherms obtained for the isolated GTPase in the presence of Mg(II) were analysed using a ternary model in which the protein can bind to the free nucleotide (G(D)TP) or that bound to one magnesium ion (MgG(D)TP); additionally, GTP may also exist in the form of Mg2GTP, which is not recognised by the protein. The derivation of this coupled-equilibria model can be reviewed in [6, 31]. The binding constant (Kb), the enthalpy change (∆Hb), and the stoichiometry (n) were obtained with the non-linear routines implemented in Origin 5.0 (OriginLab, Co., Northampton, MA, USA) using a one-binding-site model as described in [32, 33]. The heterotropic cooperativity for the binding of guanine nucleotides and Sdo1 to Efl1 R1086Q were calculated as previously described in [6, 32]. The cooperative effects of Mg(II) on the binding of guanine nucleotides to Efl1 R1086Q alone and bound to Sdo1 were calculated as follows:κ = KE-MG/KE-G κ = KES-MG/KES-G Δh = ΔHE-MG − ΔHE-G Δh = ΔHES-MG − ΔHES-G where subscripts E-MG and E-G stand for the association of the metal-bound and metal-free guanine nucleotide with mutant Efl1, respectively. Corresponding expressions applied to the heterotropic cooperativity of the binding of nucleotides to the preformed complex, Efl1•Sdo1 (ES).
The impact of Sdo1 on the binding of Efl1 R1086Q to guanine nucleotides in the presence of magnesium ions is contained in KES-MG and ΔHES-MG relative to the KE-S and ΔHE-S values; analogous ratios report the effects in the absence of Mg(II):κ = KES-MG/KE-S κ = KES-G/KE-G Δh = ΔHES-MG − ΔHE-S Δh = ΔHES-G − ΔHE-G
The corresponding cooperative entropy change was calculated as:TΔs = Δh − Δg = Δh + RTlnκ
The detailed methodology and equations to compute the changes in the accessible surface area (∆ASA) of the GTPase upon binding to nucleotides and the ∆S energetic-based parameters are reported in [6]. Briefly, the water-accessible areas (ASAs) were computed using programme NACCESS, while the changes in accessible surface area (ΔASA) upon the formation of each GTPase–nucleotide complex were estimated considering the difference between the complex and the sum of the free interacting partners. The calculated polar (ΔASAp) and apolar (ΔASAap) area changes were subsequently used to estimate the free molecular partners. […]

wild-type Efl1•Sdo1 = tested on: wild-type Efl1•Sdo1; parameters: method as in PMID 30780079; conditions: −Mg^2+, cited from earlier work
[1] = Effect of Mg^2+, Efl1 R1086Q − Sdo1, 25 °C
[2] = Effect of Mg^2+, Efl1 R1086Q − Sdo1, 30 °C
[3] = Effect of Mg^2+, Efl1 R1086Q − Sdo1, 35 °C
[4] = Effect of Sdo1, Efl1 R1086Q + Mg^2+, 25 °C
[5] = Effect of Sdo1, Efl1 R1086Q + Mg^2+, 30 °C
[6] = Effect of Sdo1, Efl1 R1086Q + Mg^2+, 35 °C
[7] = Effect of Sdo1, Efl1 R1086Q − Mg^2+, 25 °C
[8] = Effect of Sdo1, Efl1 R1086Q − Mg^2+, 30 °C
[9] = Effect of Sdo1, Efl1 R1086Q − Mg^2+, 35 °C

Structure (SMILES): Nc1nc2c(ncn2[C@@H]2O[C@H](COP(=O)(O)OP(=O)(O)O)[C@@H](O)[C@H]2O)c(=O)[nH]1 [GDP]
- increase in binding enthalpy as temperature increased (Efl1 R1086Q; 25 °C to 35 °C): ~ 6 kcal mol^−1
- Nconfres (number of residues changing conformation, absolute value) (Efl1 R1086Q; +Mg^2+, 30 °C): 21
- Nconfrotb (number of routable bonds changing conformation, absolute value) (Efl1 R1086Q; +Mg^2+, 30 °C): 30
- ΔCpconf (Efl1 R1086Q; +Mg^2+, 30 °C): −222 cal mol^−1 K^−1
- ΔSb (Efl1 R1086Q; +Mg^2+, 30 °C): 7 cal mol^−1 K^−1
- ΔSconf (Efl1 R1086Q; +Mg^2+, 30 °C): −49 cal mol^−1 K^−1
- ΔSsolv (Efl1 R1086Q; +Mg^2+, 30 °C): 65 cal mol^−1 K^−1
- −ΔASAconf (Efl1 R1086Q; +Mg^2+, 30 °C): 996 Å^2
- -TΔs (Efl1 R1086Q; [1]): -2.3 kcal/mol
- Δg (Efl1 R1086Q; [1]): 1.3 kcal/mol
- Δh (Efl1 R1086Q; [1]): 3.5 kcal/mol
- κ (heterotropic cooperativity) (Efl1 R1086Q; [1]): 0.1
- -TΔs (Efl1 R1086Q; [2]): -2.4 kcal/mol
- Δg (Efl1 R1086Q; [2]): 1.2 kcal/mol
- Δh (Efl1 R1086Q; [2]): 3.6 kcal/mol
- κ (heterotropic cooperativity) (Efl1 R1086Q; [2]): 0.1
- -TΔs (Efl1 R1086Q; [3]): -2.1 kcal/mol
- Δg (Efl1 R1086Q; [3]): 1.2 kcal/mol
- Δh (Efl1 R1086Q; [3]): 3.3 kcal/mol
- κ (heterotropic cooperativity) (Efl1 R1086Q; [3]): 0.2
- -TΔs (Efl1 R1086Q; [4]): -1.6 kcal/mol
- Δg (Efl1 R1086Q; [4]): -0.6 kcal/mol
- Δh (Efl1 R1086Q; [4]): 1.0 kcal/mol
- κ (heterotropic cooperativity) (Efl1 R1086Q; [4]): 2.7
- -TΔs (Efl1 R1086Q; [5]): -1.1 kcal/mol
- Δg (Efl1 R1086Q; [5]): -0.8 kcal/mol
- Δh (Efl1 R1086Q; [5]): 0.3 kcal/mol
- κ (heterotropic cooperativity) (Efl1 R1086Q; [5]): 3.6
- -TΔs (Efl1 R1086Q; [6]): -1.4 kcal/mol
- Δg (Efl1 R1086Q; [6]): -0.9 kcal/mol
- Δh (Efl1 R1086Q; [6]): 0.5 kcal/mol
- κ (heterotropic cooperativity) (Efl1 R1086Q; [6]): 4.6
- -TΔs (Efl1 R1086Q; [7]): -3.1 kcal/mol
- Δg (Efl1 R1086Q; [7]): 1.06 kcal/mol
- Δh (Efl1 R1086Q; [7]): 4.2 kcal/mol
- κ (heterotropic cooperativity) (Efl1 R1086Q; [7]): 0.2
- -TΔs (Efl1 R1086Q; [8]): -1.2 kcal/mol
- Δg (Efl1 R1086Q; [8]): 1.2 kcal/mol
- Δh (Efl1 R1086Q; [8]): 2.3 kcal/mol
- κ (heterotropic cooperativity) (Efl1 R1086Q; [8]): 0.1
- Δg (Efl1 R1086Q; [9]): 1.3 kcal/mol
- Δh (Efl1 R1086Q; [9]): 1.2 kcal/mol
- κ (heterotropic cooperativity) (Efl1 R1086Q; [9]): 0.1
- Kd (Efl1 R1086Q; +Mg^2+, 25 °C): 24 ± 3 µM
- Kd (Efl1 R1086Q; +Mg^2+, 30 °C): 28 ± 6 µM
- Kd (Efl1 R1086Q; +Mg^2+, 35 °C): 29 ± 8 µM
- Kd (Efl1 R1086Q; −Mg^2+, 25 °C): 3 ± 0.4 µM
- Kd (Efl1 R1086Q; −Mg^2+, 30 °C): 4 ± 0.6 µM
- Kd (Efl1 R1086Q; −Mg^2+, 35 °C): 4 ± 0.6 µM
- -TΔSb (Efl1 R1086Q; +Mg^2+, 25 °C): -3.19 kcal/mol
- ΔGb (Efl1 R1086Q; +Mg^2+, 25 °C): -6.29 kcal/mol
- ΔHb (Efl1 R1086Q; +Mg^2+, 25 °C): -3.1 ± 0.1 kcal/mol
- -TΔSb (Efl1 R1086Q; +Mg^2+, 30 °C): -2.20 kcal/mol
- ΔGb (Efl1 R1086Q; +Mg^2+, 30 °C): -6.30 kcal/mol
- ΔHb (Efl1 R1086Q; +Mg^2+, 30 °C): -4.1 ± 0.6 kcal/mol
- -TΔSb (Efl1 R1086Q; +Mg^2+, 35 °C): -0.59 kcal/mol
- ΔGb (Efl1 R1086Q; +Mg^2+, 35 °C): -6.39 kcal/mol
- ΔHb (Efl1 R1086Q; +Mg^2+, 35 °C): -5.8 ± 0.2 kcal/mol
- ΔCpb (Efl1 R1086Q; +Mg^2+): −270 ± 40 cal mol^−1 K^−1 and −270 cal mol^−1 K^−1
- -TΔSb (Efl1 R1086Q; −Mg^2+, 25 °C): -0.94 kcal/mol
- ΔGb (Efl1 R1086Q; −Mg^2+, 25 °C): -7.54 kcal/mol
- ΔHb (Efl1 R1086Q; −Mg^2+, 25 °C): -6.6 ± 0.2 kcal/mol
- -TΔSb (Efl1 R1086Q; −Mg^2+, 30 °C): 0.22 kcal/mol
- ΔGb (Efl1 R1086Q; −Mg^2+, 30 °C): -7.47 kcal/mol
- ΔHb (Efl1 R1086Q; −Mg^2+, 30 °C): -7.7 ± 0.3 kcal/mol
- -TΔSb (Efl1 R1086Q; −Mg^2+, 35 °C): 1.55 kcal/mol
- ΔGb (Efl1 R1086Q; −Mg^2+, 35 °C): -7.55 kcal/mol
- ΔHb (Efl1 R1086Q; −Mg^2+, 35 °C): -9.1 ± 0.3 kcal/mol
- ΔCpb (Efl1 R1086Q; −Mg^2+): −250 cal mol^−1 K^−1 and −250 ± 17 cal mol^−1 K^−1
- surface buried by the conformational change (Efl1 R1086Q; refers to Table 3, 30 °C): ~ 1000 Å
- Nconfres (number of residues changing conformation, absolute value) (Efl1 R1086Q; −Mg^2+, 30 °C): 21
- ΔCpconf (Efl1 R1086Q; −Mg^2+, 30 °C): −220 cal mol^−1 K^−1
- ΔSb (Efl1 R1086Q; −Mg^2+, 30 °C): −1 cal mol^−1 K^−1
- ΔSconf (Efl1 R1086Q; −Mg^2+, 30 °C): −53 cal mol^−1 K^−1
- ΔSsolv (Efl1 R1086Q; −Mg^2+, 30 °C): 60 cal mol^−1 K^−1
- −ΔASAconf (Efl1 R1086Q; −Mg^2+, 30 °C): 987 Å^2
- -TΔSb (wild-type Efl1•Sdo1; 30 °C): 1.5 kcal/mol
- Kd (wild-type Efl1•Sdo1; 30 °C): 52 µM
- ΔGb (wild-type Efl1•Sdo1; 30 °C): -5.9 kcal/mol
- ΔHb (wild-type Efl1•Sdo1; 30 °C): -7.4 ± 0.0 kcal/mol
- ΔCpb (wild-type Efl1•Sdo1): −640 cal mol^−1 K^−1 and −640 ± 34 cal mol^−1 K^−1
